Measurements from patent publication US7482378B2, “Physiological cooling compositions” (Millenium Specialty Chemicals, Inc., priority 2004, dated 2009).

Experiments:
[1] = Relative cooling strength of individual coolants, organoleptic sequential dilution method versus standard 10 ppm WS-3 solution in water; type: in vivo; settings: relative to 10 ppm WS-3 in water assigned 10.0; values accepted in the art and confirmed by expert evaluation
Description: The aqueous solutions of products for organoleptic tests were obtained by dissolving appropriate amounts of the products in propylene glycol PG and adding the PG solution to an appropriate amount of water.
A. Cooling strength values for individual coolants. Cooling strength values used in this invention for individual coolants were those generally accepted in the art and also additionally confirmed using expert evaluations conducted by Millennium Specialty Chemicals personnel on the basis of a sequential dilution method, i.e., a controlled dilution of samples to the concentration where their strength is about equal to the standard solution of WS-3. For purposes of Examples 55-60, a 10 ppm solution of WS-3 in water was used as the standard solution and was assigned a standardized cooling strength value of 10.0. The corresponding relative cooling strengths for the individual cooling agents were then assigned based upon an organoleptic determination of the approximate concentration of cooling agent that was required to provide about the same cooling strength as the standardized 10 ppm solution of WS-3.

Row | Molecule | Relative cooling strength [1] | melting point [°C]
1 | CC(C)[C@@H]1CC[C@@H](C)C[C@H]1OC(=O)CCCC(=O)O [MMG, monomenthyl glutarate] | about 3.5 | –
2 | CC1CCC(C(C)C)C(OC(=O)C(C)O)C1 (stereo not drawn) [Menthyl Lactate, l-Menthyl ester of lactic acid] | about 2.9 | –
3 | CNC(=O)C1C(C)CCCC1(C)C (stereo not shown) [N,2,2,6-Tetramethylcyclohexane-1-carboxamide] | about 1.0 | 146 to 148
4 | CCNC(=O)[C@@H]1C[C@H](C)CC[C@H]1C(C)C [WS-3, N-ethyl-3-p-menthane carboxamide] | 10.0 | –
5 | CCOC(=O)CNC(=O)C1CC(C)CCC1C(C)C (stereo not shown) [WS-5, N-(ethoxycarbonylmethyl)-3-p-menthane carboxamide] | about 16.7 | –
6 | CC(C)[C@@H]1CC[C@@H](C)C[C@H]1C(=O)NC(C)(C)C [WS-14, N-tert-butyl-3-p-menthane carboxamide] | about 5.0 | 147 to 150
7 | CNC(=O)C(C)(C(C)C)C(C)C [WS-23, N,2,3-trimethyl-2-isopropyl butanamide] | about 5.0 | –
8 | Glyceryl ether of p-menthane-3-carboxylic acid [WS-30] | about 1.5 | –
